In the experiment the target is T1, CCR1 (Homo sapiens, UniProt P32246).
T1 construct: host or cells: Non-adherent cells
T1 sequence (P32246 1-355): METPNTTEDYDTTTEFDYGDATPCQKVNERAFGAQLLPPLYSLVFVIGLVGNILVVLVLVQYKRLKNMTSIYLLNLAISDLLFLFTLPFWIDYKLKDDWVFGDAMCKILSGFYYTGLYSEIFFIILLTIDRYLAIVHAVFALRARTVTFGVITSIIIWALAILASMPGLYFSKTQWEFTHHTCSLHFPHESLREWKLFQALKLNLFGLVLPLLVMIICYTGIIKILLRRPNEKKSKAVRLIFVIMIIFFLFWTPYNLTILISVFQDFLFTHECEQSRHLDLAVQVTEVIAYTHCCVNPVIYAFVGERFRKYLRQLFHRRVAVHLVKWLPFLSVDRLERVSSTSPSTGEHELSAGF
The experiment in a line: functional cellular assay measuring calcium flux in CCR1 transfected cells (block of CCR1/MIP-1α interaction). Conditions: cells stably expressing recombinant CCR1 and G-alpha-16, MIP-1alpha added at EC80. It is filed as cell-based. The procedure:
Compounds are assessed for the ability to block the interaction of CCR1 and MIP-1α in a functional cellular assay measuring calcium flux in CCR1 transfected cells.
Non-adherent cells purchased from Chemicon Corporation (HTS005C), stably expressing recombinant CCR1 and G-alpha-16 are grown in RPMI 1640 medium (Mediatech 10-080-CM) supplemented with 10% FBS, 0.4 mg/mL Geneticin and penicillin/streptomycin. On the day of the assay, the cells are loaded with Calcium 4 dye (Molecular Devices R7448) with Probenecid (Invitrogen P346400) at 8E5 cells/mL for 1 hour at room temperature. After 1 hour, they are seeded in a 384-well tissue culture-treated plate at a density of 20,000 cells/well. Appropriately diluted test compound is added to the well to achieve a top concentration of 3,000 nM (diluted 4-fold with 10 doses total). The final concentration of DMSO is 1%. The buffer is HBSS (Invitrogen 14025) with 20 mM HEPES at pH 7.4. The cells incubate 30 minutes at 37 C and then 30 minutes at room temperature. The plates are transferred to the […] FDSS6000 where MIP-1alpha in 1% BSA is added at the EC80 final concentration. All plates must be read within 4 hours of the start of dye-loading. Wells +/− MIP-1alpha containing diluted DMSO instead of compound serve as the controls. Data are analyzed using Activity Base software.
For orientation: A change in cytosolic calcium serves as a functional read-out for many receptors and channels.

As for `CS(=O)(=O)c1cc(C2(NC(=O)c3cccc4c3cnn4-c3ccc(F)cc3)CC2)ccn1` [1-(4-Fluoro-phenyl)-1H-indazole-4-carboxylic acid [1-(2-methanesulfonyl-pyridin-4-yl)-cyclopropyl]-amide], the IC50 (as a rule, the concentration that gives 50% inhibition) came to 4 nM.
The value for `O=C(NC1(c2nncs2)CC1)c1cncc2c1cnn2-c1ccc(F)cc1` [1-(4-Fluoro-phenyl)-1H-pyrazolo[3,4-c]pyridine-4-carboxylic acid (1-1,3,4-thiadiazol-2-yl-cyclopropyl)-amide] was 265 nM; that for `Cc1cccc(C2(NC(=O)c3cncc4c3cnn4-c3ccc(F)cc3)CC2)c1` [1-(4-Fluoro-phenyl)-1H-pyrazolo[3,4-c]pyridine-4-carboxylic acid (1-m-tolyl-cyclopropyl)-amide] was 26 nM.
On to `Cc1ccccc1C1(NC(=O)c2cncc3c2cnn3-c2ccc(F)cc2)CC1` [1-(4-Fluoro-phenyl)-1H-pyrazolo[3,4-c]pyridine-4-carboxylic acid (1-o-tolyl-cyclopropyl)-amide], for which the IC50 was 61 nM.
`Cc1ccc(C2(NC(=O)c3cncc4c3cnn4-c3ccc(F)cc3)CC2)cc1` [1-(4-Fluoro-phenyl)-1H-pyrazolo[3,4-c]pyridine-4-carboxylic acid (1-p-tolyl-cyclopropyl)-amide]: the IC50 turned out to be 14 nM.
On to `O=C(NC1(c2ccccc2)CC1)c1cncc2c1cnn2-c1ccc(F)cc1` [1-(4-Fluoro-phenyl)-1H-pyrazolo[3,4-c]pyridine-4-carboxylic acid (1-phenyl-cyclopropyl)-amide], for which the IC50 is 109 nM.
Consider `O=C(NC1(c2cccnc2)CC1)c1cncc2c1cnn2-c1ccc(F)cc1` [1-(4-Fluoro-phenyl)-1H-pyrazolo[3,4-c]pyridine-4-carboxylic acid (1-pyridin-3-yl-cyclopropyl)-amide], for which the IC50 amounted to 88 nM.
For `O=C(NC1(c2ccncc2)CC1)c1cncc2c1cnn2-c1ccc(F)cc1` [1-(4-Fluoro-phenyl)-1H-pyrazolo[3,4-c]pyridine-4-carboxylic acid (1-pyridin-4-yl-cyclopropyl)-amide], the IC50 turned out to be 18 nM.
Then `O=C(NC1(c2ccnc(Br)c2)CCC1)c1cncc2c1cnn2-c1ccc(F)cc1` [1-(4-Fluoro-phenyl)-1H-pyrazolo[3,4-c]pyridine-4-carboxylic acid [1-(2-bromo-pyridin-4-yl)-cyclobutyl]-amide], with 3 nM.
As to `O=C(NC1(c2ccnc(Br)c2)CC1)c1cncc2c1cnn2-c1ccc(F)cc1` [1-(4-Fluoro-phenyl)-1H-pyrazolo[3,4-c]pyridine-4-carboxylic acid [1-(2-bromo-pyridin-4-yl)-cyclopropyl]-amide], the IC50 turned out to be 0.5 nM.
As to `Cc1nc(C2(NC(=O)c3cncc4c3cnn4-c3ccc(F)cc3)CC2)cs1` [1-(4-Fluoro-phenyl)-1H-pyrazolo[3,4-c]pyridine-4-carboxylic acid [1-(2-methyl-thiazol-4-yl)-cyclopropyl]-amide], the IC50 amounted to 99 nM.
For the compound `O=C(NC1(c2cccc(Br)c2)CC1)c1cncc2c1cnn2-c1ccc(F)cc1` [1-(4-Fluoro-phenyl)-1H-pyrazolo[3,4-c]pyridine-4-carboxylic acid [1-(3-bromo-phenyl)-cyclopropyl]-amide], the IC50 came out at 1 nM.
On to `NC(=O)c1cccc(C2(NC(=O)c3cncc4c3cnn4-c3ccc(F)cc3)CC2)c1` [1-(4-Fluoro-phenyl)-1H-pyrazolo[3,4-c]pyridine-4-carboxylic acid [1-(3-carbamoyl-phenyl)-cyclopropyl]-amide], for which the half-inhibitory concentration (IC50) was found to be 40 nM.
The value for `O=C(NC1(c2cccc(Cl)c2)CC1)c1cncc2c1cnn2-c1ccc(F)cc1` [1-(4-Fluoro-phenyl)-1H-pyrazolo[3,4-c]pyridine-4-carboxylic acid [1-(3-chloro-phenyl)-cyclopropyl]-amide] was 3 nM.
Regarding `O=C(NC1(c2nc(C3CC3)no2)CC1)c1cncc2c1cnn2-c1ccc(F)cc1` [1-(4-Fluoro-phenyl)-1H-pyrazolo[3,4-c]pyridine-4-carboxylic acid [1-(3-cyclopropyl-1,2,4-oxadiazol-5-yl)-cyclopropyl]-amide], the IC50 amounted to 11 nM.
In the case of `O=C(NC1(c2cccc(F)c2)CC1)c1cncc2c1cnn2-c1ccc(F)cc1` [1-(4-Fluoro-phenyl)-1H-pyrazolo[3,4-c]pyridine-4-carboxylic acid [1-(3-fluoro-phenyl)-cyclopropyl]-amide], the IC50 stood at 13 nM.
In the case of `CS(=O)(=O)c1cccc(C2(NC(=O)c3cncc4c3cnn4-c3ccc(F)cc3)CC2)c1` [1-(4-Fluoro-phenyl)-1H-pyrazolo[3,4-c]pyridine-4-carboxylic acid [1-(3-methanesulfonyl-phenyl)-cyclopropyl]-amide], the IC50 was determined as 1 nM.
`COc1cccc(C2(NC(=O)c3cncc4c3cnn4-c3ccc(F)cc3)CC2)c1` [1-(4-Fluoro-phenyl)-1H-pyrazolo[3,4-c]pyridine-4-carboxylic acid [1-(3-methoxy-phenyl)-cyclopropyl]-amide]: the IC50 worked out at 5 nM.
Then `CNC(=O)c1cccc(C2(NC(=O)c3cncc4c3cnn4-c3ccc(F)cc3)CC2)c1` [1-(4-Fluoro-phenyl)-1H-pyrazolo[3,4-c]pyridine-4-carboxylic acid [1-(3-methylcarbamoyl-phenyl)-cyclopropyl]-amide], with 2 nM.
In the case of `NS(=O)(=O)c1cccc(C2(NC(=O)c3cncc4c3cnn4-c3ccc(F)cc3)CC2)c1` [1-(4-Fluoro-phenyl)-1H-pyrazolo[3,4-c]pyridine-4-carboxylic acid [1-(3-sulfamoyl-phenyl)-cyclopropyl]-amide], the IC50 worked out at 3 nM.
Regarding `O=C(NC1(c2cccc(C(F)(F)F)c2)CC1)c1cncc2c1cnn2-c1ccc(F)cc1` [1-(4-Fluoro-phenyl)-1H-pyrazolo[3,4-c]pyridine-4-carboxylic acid [1-(3-trifluoromethyl-phenyl)-cyclopropyl]-amide], the IC50 worked out at 0.4 nM.
For `NCc1ccnc(C2(NC(=O)c3cncc4c3cnn4-c3ccc(F)cc3)CC2)c1` [1-(4-Fluoro-phenyl)-1H-pyrazolo[3,4-c]pyridine-4-carboxylic acid [1-(4-aminomethyl-pyridin-2-yl)-cyclopropyl]-amide], the IC50 is 290 nM.
For `O=C(NC1(c2ccc(Br)cc2)CC1)c1cncc2c1cnn2-c1ccc(F)cc1` [1-(4-Fluoro-phenyl)-1H-pyrazolo[3,4-c]pyridine-4-carboxylic acid [1-(4-bromo-phenyl)-cyclopropyl]-amide], the IC50 came out at 4 nM.
Take `O=C(NC1(c2ccc(Cl)cc2)CC1)c1cncc2c1cnn2-c1ccc(F)cc1` [1-(4-Fluoro-phenyl)-1H-pyrazolo[3,4-c]pyridine-4-carboxylic acid [1-(4-chloro-phenyl)-cyclopropyl]-amide]: the IC50 stood at 10 nM.
With `O=C(NC1(c2cc(Cl)ccn2)CC1)c1cncc2c1cnn2-c1ccc(F)cc1` [1-(4-Fluoro-phenyl)-1H-pyrazolo[3,4-c]pyridine-4-carboxylic acid [1-(4-chloro-pyridin-2-yl)-cyclopropyl]-amide], the IC50 turned out to be 17 nM.
In the case of `O=C(NC1(c2ccc(F)cc2)CCC1)c1cncc2c1cnn2-c1ccc(F)cc1` [1-(4-Fluoro-phenyl)-1H-pyrazolo[3,4-c]pyridine-4-carboxylic acid [1-(4-fluoro-phenyl)-cyclobutyl]-amide], the IC50 was determined as 62 nM.
As for `O=C(NC1(c2ccc(F)cc2)CC1)c1cncc2c1cnn2-c1ccc(F)cc1` [1-(4-Fluoro-phenyl)-1H-pyrazolo[3,4-c]pyridine-4-carboxylic acid [1-(4-fluoro-phenyl)-cyclopropyl]-amide], the IC50 was 75 nM.
Turning to `O=C(NC1(c2cc(I)ccn2)CC1)c1cncc2c1cnn2-c1ccc(F)cc1` [1-(4-Fluoro-phenyl)-1H-pyrazolo[3,4-c]pyridine-4-carboxylic acid [1-(4-iodo-pyridin-2-yl)-cyclopropyl]-amide], the IC50 was found to be 2 nM.
Consider `COc1ccc(C2(NC(=O)c3cncc4c3cnn4-c3ccc(F)cc3)CCC2)cc1` [1-(4-Fluoro-phenyl)-1H-pyrazolo[3,4-c]pyridine-4-carboxylic acid [1-(4-methoxy-phenyl)-cyclobutyl]-amide], for which the IC50 came to 51 nM.
Turning to `COc1ccc(C2(NC(=O)c3cncc4c3cnn4-c3ccc(F)cc3)CC2)cc1` [1-(4-Fluoro-phenyl)-1H-pyrazolo[3,4-c]pyridine-4-carboxylic acid [1-(4-methoxy-phenyl)-cyclopropyl]-amide], the IC50 was determined as 17 nM.
As to `COc1ccnc(C2(NC(=O)c3cncc4c3cnn4-c3ccc(F)cc3)CC2)c1` [1-(4-Fluoro-phenyl)-1H-pyrazolo[3,4-c]pyridine-4-carboxylic acid [1-(4-methoxy-pyridin-2-yl)-cyclopropyl]-amide], the concentration for half-maximal inhibition (IC50) came to 31 nM.

The values are drawn from patent publication US9056858B2, “Indazole and pyrazolopyridine compounds as CCR1 receptor antagonists” (Boehringer Ingelheim International GmbH, priority 2009, dated 2015).
